Here are results for four compounds from patent US6974800B1, “Formulations comprising an inhibitor of carboxypeptidase U and A thrombin inhibitor” (AstraZeneca AB, priority 1999, dated 2005).

This assay deals with lung fibrin deposition. Kind of assay: Lung fibrin deposition in the anaesthetized rat (endotoxin + batroxobin, 125I-fibrinogen). The assay is classed as in vivo, rat (Sprague Dawley). On the procedure: Batroxobin No. 520 CRY (American Diagnostica Inc., Greenwich, Conn., USA) was kept at 8° C. both while lyophilized and when dissolved in saline to a concentration of 10 BU/ml. It was used within 5 days in the experiments. The remaining drug was freezed and kept at […] for a maximum of 30 days.
Endotoxin L-3129 (Sigma, St. Louis, Mo., USA) was dissolved in saline to a concentration of 50 μg/ml. A fresh solution was prepared for each experiment.
^125I-labelled human fibrinogen (Amersham, Little Chalfont, Buck., UK) was stored at 8° C. while lyophilized. After dissolving in saline/aq.dest. (80/20 v/v) to a stock solution of approx. 0.8 MBq/ml (20 μCi/ml) it was divided into aliquots (one for each experiment), quickly freezed and stored at −20° C. It was used in the experiments within 14 days after the production date.
The thrombin inhibitor inogatran was dissolved in 40% (w/w) cyclodextrin (HPβCD) to a concentration of 5 mg/ml and stored at −20° C. It was further diluted with 40% cyclo-dextrin before use in the different experiments. In the studies the drug was administered subcutaneously.
The thrombin inhibitor melagatran was dissolved in saline.
The CPU inhibitors […] and Compound A were dissolved in deoxygenated saline. The saline was deoxygenated by ultrasonication for 20 min and subsequently by passing nitrogen for another 20 min. The solutions were always fresh-made for each experiment. The CPU inhibitor was administered to the rats as an i.v. infusion for 5 min.
Male rats of the Sprague Dawley strain (Charles River, Sweden) with a body weight of 325–425 g were used in these experiments. The animals were allowed to accommodate at AstraZeneca R&D, Mölndal, Sweden for 1 week before use.
Anaesthesia was induced and maintained by Inactin 100 mg/kg i.p.
Two catheters were inserted in the left jugular vein, one for administration of ^125I-fibrinogen and batroxobin and the other for administration of endotoxin and CPU inhibitor or their corresponding vehicles. A third catheter was inserted in the carotid artery for blood sampling and measurement of the mean arterial blood pressure and heart rate. To avoid blood clots in the arterial catheter a slow saline infusion (approx. 1.0 ml/kg*h) was maintained throughout the experiment. The rats were tracheotomized in order to facilitate spontaneous breathing. The body temperature was monitored and maintained at 38° C. by external heating.
The animals were given an i.v. injection of endotoxin (50 μg/kg) at the start of the experiment. Two hours later the thrombin inhibitor or its vehicle was injected subcutaneously and another 15 min later ^125I-fibrinogen (0.04 MBq) was given as an i.v. injection. An infusion lasting for five minutes of the CPU-inhibitor or its vehicle was started after 5 min. After 5 min, batroxobin (10 BU/kg) was given as an i.v. bolus injection for one minute.
Blood samples for determination of ^125I-content were taken in all experiments just before and 5, 20 and 30 min after the batroxobin administration. At the end of the experiment the lungs were excised, the tissue was gently washed in saline and thereafter blotted and weighed. The ^125I-content in the tissue and blood samples was determined, using a Wallac 1282 Compugamma counter. The ^125I-concentration in plasma and in the lungs was expressed as a percentage of the radioactivity in the reference arterial blood sample taken just prior to the batroxobin injection.
For each of the four different dose combinations, only CPU inhibitor, only thrombin inhibitor, thrombin inhibitor together with CPU inhibitor at 0.2 and 0.28 μmol/kg respectively, separate E-max models were fitted. The models were fitted on a logarithmic scale giving estimates of the median effective dose, i.e., the dose where half of the population has 50% effect.

In the case of `N=C(N)NCCSCC(CS)C(=O)O` (racemic) [MERGETPA, DL-2-mercaptomethyl-3-guanidinoethylthiopropanoic acid], the “Remaining fibrin after treatment” value runs as follows: (Table I, CPU inhibitor alone, 8.4 μmol/kg i.v. infusion, 100% = no effect) 90 ± 18.1%; (Table I, CPU inhibitor alone, 21.1 μmol/kg i.v. infusion) 37 ± 19.3%; (Table I, CPU inhibitor alone, 33.7 μmol/kg i.v. infusion) 23 ± 17.3%.
With `Nc1ccc(CC(CS)C(=O)O)cn1` (stereo not drawn) [compound A, 3-(6-amino-pyridin-3-yl)-2-mercaptomethyl-propanoic acid], the “Remaining fibrin after treatment” value runs as follows: (Table II, CPU inhibitor alone, 0.20 μmol/kg i.v. infusion) 100 ± 25.8%; (Table II, CPU inhibitor alone, 0.28 μmol/kg) 88 ± 23.2%; (Table II, CPU inhibitor alone, 0.4 μmol/kg) 87 ± 50.6 n = 6%; (Table II, CPU inhibitor alone, 2.0 μmol/kg) 49 ± 30.0 n = 7%; (Table II, CPU inhibitor alone, 4.0 μmol/kg) 15 ± 9.3 n = 4%; (Table II, CPU inhibitor alone, 20.0 μmol/kg) 7 ± 1.4 n = 2%. Besides, the “Remaining fibrin after treatment” value by setting is: (Table III, CPU inhibitor alone, 0.20 μmol/kg) 97 ± 24.1%; (Table III, CPU inhibitor alone, 0.28 μmol/kg) 81 ± 24.5%.
`N=C(N)NCCCNC(=O)[C@@H]1CCCCN1C(=O)[C@@H](CC1CCCCC1)NCC(=O)O` [inogatran, HOOC—CH2—(R)Cha-Pic-Nag-H]: the “Remaining fibrin after treatment” value (Table I, thrombin inhibitor alone, 2.3 μmol/kg s.c.) was determined as 94 ± 20.2 n = 6%; the “Remaining fibrin after treatment” value (Table I, thrombin inhibitor alone, 3.4 μmol/kg s.c.) is 72 ± 23.6 n = 6%; the “Remaining fibrin after treatment” value (Table I, thrombin inhibitor alone, 5.7 μmol/kg s.c.) stood at 41 ± 20.3 n = 6%; the “Remaining fibrin after treatment” value (Table I, thrombin inhibitor alone, 17.2 μmol/kg s.c.) is on record as 39 ± 15.9 n = 6%.
Regarding `N=C(N)c1ccc(CNC(=O)[C@@H]2CCN2C(=O)[C@H](NCC(=O)O)C2CCCCC2)cc1` [melagatran, HOOC—CH2—(R)Cgl-Aze-Pab-H], the “Remaining fibrin after treatment” value is listed as 97 ± 12.4 n = 6% (Table II, thrombin inhibitor alone, 0.23 μmol/kg s.c.); 77 ± 22.4 n = 4% (Table II, thrombin inhibitor alone, 0.35 μmol/kg); 62 ± 17.0 n = 2% (Table II, thrombin inhibitor alone, 0.58 μmol/kg); 31 ± 13.3 n = 4% (Table II, thrombin inhibitor alone, 1.75 μmol/kg); 55 ± 21.7 n = 4% (Table II, thrombin inhibitor alone, 3.5 μmol/kg); 110 ± 15.2 n = 3% (Table III, thrombin inhibitor alone, 0.18 μmol/kg). Further, the “Remaining fibrin after treatment” value by setting is: (Table III, thrombin inhibitor alone, 0.23 μmol/kg) 98 ± 11.5 n = 7%; (Table III, thrombin inhibitor alone, 0.30 μmol/kg) 87 ± 27.6 n = 3%; (Table III, thrombin inhibitor alone, 0.35 μmol/kg) 77 ± 22.4 n = 4%.
